Experiments:
Assay type in all cases: cell-based
[1] = biological target: adenosine 2a (Homo sapiens, UniProt P29274); test: Agonist activity against adenosine receptor subtypes, CHO cells with cAMP response element/SPAP reporter (basal cAMP); details: ratio to EC50 of NECA; transfected CHO cells; effect on basal cAMP via SPAP
Description: (§1) Compounds of the invention were tested for in vitro and in vivo biological activity in accordance with the following screens: • (1) Agonist activity against adenosine 2a, adenosine 1 and adenosine 3 receptor subtypes.
(§2) Agonist selectivity of compounds against other human adenosine receptors was determined using Chinese hamster ovary (CHO) cells transfected with the gene for the relevant human adenosine receptor following a method based on that of Castanon and Spevak, 1994 . The CHO cells were also transfected with cyclic AMP response elements promoting the gene for secreted placental alkaline phosphatase (SPAP) (Wood, 1995). The effect of test compounds was determined by their effects on basal levels of cAMP (A2a) or on forskolin-enhanced cAMP (A1 and A3) as reflected by changes in levels of SPAP. EC50 values for compounds were then determined as a ratio to that of the non-selective agonist N-ethyl carboxamide adenosine (NECA).

[2] = biological target: T1, adenosine 1 (Homo sapiens, UniProt P30542); test: Agonist activity against adenosine receptor subtypes, CHO cells with cAMP response element/SPAP reporter (forskolin-enhanced cAMP); details: ratio to EC50 of NECA; transfected CHO cells; effect on forskolin-enhanced cAMP via SPAP
T1 sequence (P30542 1-326): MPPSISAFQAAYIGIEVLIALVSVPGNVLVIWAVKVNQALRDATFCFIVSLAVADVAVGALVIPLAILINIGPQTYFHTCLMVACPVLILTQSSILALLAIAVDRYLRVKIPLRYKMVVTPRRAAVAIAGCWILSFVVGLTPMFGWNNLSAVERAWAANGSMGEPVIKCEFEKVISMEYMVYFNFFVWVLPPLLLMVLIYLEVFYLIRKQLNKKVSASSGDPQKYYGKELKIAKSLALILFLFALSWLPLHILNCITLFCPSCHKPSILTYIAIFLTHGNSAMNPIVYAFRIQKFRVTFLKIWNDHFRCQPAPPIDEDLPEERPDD
Description: as §1, §2

[3] = biological target: T2, adenosine 3 (Homo sapiens, UniProt P0DMS8); test: as above; details: ratio to EC50 of NECA; transfected CHO cells; effect on forskolin-enhanced cAMP via SPAP
T2 sequence (P0DMS8 1-318): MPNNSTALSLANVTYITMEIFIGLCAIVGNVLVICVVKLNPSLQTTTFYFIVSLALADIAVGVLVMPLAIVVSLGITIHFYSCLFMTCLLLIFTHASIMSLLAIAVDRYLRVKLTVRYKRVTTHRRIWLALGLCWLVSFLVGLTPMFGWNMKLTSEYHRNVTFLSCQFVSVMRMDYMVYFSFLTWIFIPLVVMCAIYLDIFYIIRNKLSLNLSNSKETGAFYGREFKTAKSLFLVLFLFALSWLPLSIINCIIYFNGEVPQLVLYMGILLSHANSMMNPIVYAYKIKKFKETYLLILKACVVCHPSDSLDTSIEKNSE
Description: as §1, §2

adenosine 2a, sequence (P29274 whole entry): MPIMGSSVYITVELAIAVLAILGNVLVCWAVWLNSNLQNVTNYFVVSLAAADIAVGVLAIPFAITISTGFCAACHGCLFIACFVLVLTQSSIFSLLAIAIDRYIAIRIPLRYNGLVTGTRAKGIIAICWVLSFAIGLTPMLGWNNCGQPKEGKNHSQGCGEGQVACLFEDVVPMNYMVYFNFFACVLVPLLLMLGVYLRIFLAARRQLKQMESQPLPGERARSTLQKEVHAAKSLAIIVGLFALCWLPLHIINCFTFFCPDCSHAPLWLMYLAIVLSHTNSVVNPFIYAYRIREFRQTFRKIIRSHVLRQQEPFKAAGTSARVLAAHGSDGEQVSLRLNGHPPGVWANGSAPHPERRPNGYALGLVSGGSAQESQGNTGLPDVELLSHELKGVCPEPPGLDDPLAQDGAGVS

Compound	A2a (EC50 values as a ratio of that of NECA) [1]	A1 (EC50 values as a ratio of that of NECA) [2]	A3 (EC50 values as a ratio of that of NECA) [3]
CCc1nc([C@H]2O[C@@H](n3cnc4c(NCC(c5ccccc5)c5ccccc5)nc(NCCNC(=N)N)nc43)[C@H](O)[C@@H]2O)no1.O=CO.O=CO [Example 29, N-(2-{6-(2,2-Diphenyl-ethylamino)-9-[5R-(5-ethyl-[1,2,4]oxadiazol-3-yl)-3R,4S-dihydroxy-tetrahydro-furan-2R-yl]-9H-purin-2-ylamino}-ethyl)-guanidine diformate]	30.7	>2147	>284
CCn1cnc(C2OC(n3cnc4c(NCC(c5ccccc5)c5ccccc5)nc(NC5CCC(N)CC5)nc43)C(O)C2O)n1.O=CO.O=CO [Example 30, (2R,3R,4S,5R)-2-[2-(trans-4-Amino-cyclohexylamino)-6-(2,2-diphenyl-ethylamino)-purin-9-yl]-5-(1-ethyl-1H-[1,2,4]triazol-3-yl)-tetrahydro-furan-3,4-diol diformate]	13.27	2948.1	>206
CCn1cnc([C@H]2O[C@@H](n3cnc4c(NCC(c5ccccc5)c5ccccc5)nc(NCCc5cn(C)cn5)nc43)[C@H](O)[C@@H]2O)n1.O=CO.O=CO [Example 31, (2R,3R,4S,5R)-2-{6-(2,2-Diphenyl-ethylamino)-2-[2-(1-methyl-1H-imidazol-4-yl)-ethylamino]-purin-9-yl}-5-(1-ethyl-1H-[1,2,4]triazol-3-yl)-tetrahydro-furan-3,4-diol diformate]	8.79	1753.5	>206
CCn1cnc([C@H]2O[C@@H](n3cnc4c(NCC(c5ccccc5)c5ccccc5)nc(NCCN5CCCCC5)nc43)[C@H](O)[C@@H]2O)n1.O=CO.O=CO [Example 32, (2R,3R,4S,5R)-2-[6-(2,2-Diphenyl-ethylamino)-2-(2-piperidin-1-yl-ethylamino)-purin-9-yl]-5-(1-ethyl-1H-[1,2,4]triazol-3-yl)-tetrahydro-furan-3,4-diol diformate]	11.85	1217.4	>206
CCn1cnc([C@H]2O[C@@H](n3cnc4c(NCC(c5ccccc5)c5ccccc5)nc(NCCc5ccccn5)nc43)[C@H](O)[C@@H]2O)n1.O=CO.O=CO [Example 33, (2R,3R,4S,5R)-2-[6-(2,2-Diphenyl-ethylamino)-2-(2-pyridin-2-yl-ethylamino)-purin-9-yl]-5-(1-ethyl-1H-[1,2,4]triazol-3-yl)-tetrahydro-furan-3,4-diol diformate]	34.25	4999.7	>206
CCn1cnc(C2OC(n3cnc4c(NCC(c5ccccc5)c5ccccc5)nc(NC5CCNC5)nc43)C(O)C2O)n1.O=CO.O=CO [Example 34, (2R,3R,4S,5R)-2-[6-(2,2-Diphenyl-ethylamino)-2-(pyrrolidin-3R-ylamino)-purin-9-yl]-5-(1-ethyl-1H-[1,2,4]triazol-3-yl)-tetrahydro-furan-3,4-diol diformate]	10.97	1980.8	>231
CCC(CC)Nc1nc(NCCc2cn(C)cn2)nc2c1ncn2[C@@H]1O[C@H](c2nnc(C3CC3)o2)[C@@H](O)[C@H]1O.O=CO.O=CO [Example 37]	6.39	581.9	>173
CCC(CC)Nc1nc(NCCN2CCCCC2)nc2c1ncn2C1OC(c2nnc(C3CC3)o2)C(O)C1O.O=CO.O=CO (stereo not drawn) [Example 38]	45.64	365.6	>173
CCC(CC)Nc1nc(NC2CCCC2)nc2c1ncn2[C@@H]1O[C@H](c2nnc(C3CC3)o2)[C@@H](O)[C@H]1O.O=CO.O=CO [Example 39, (2R,3R,4S,5S)-2-[2-Cyclopentylamino-6-(1-ethyl-propylamino)-purin-9-yl]-5-(5-cyclopropyl-[1,3,4]oxadiazol-2-yl)-tetrahydro-furan-3,4-diol diformate]	129.5	>=1067	>173
CCC(CC)Nc1nc(N[C@@H]2CCNC2)nc2c1ncn2[C@@H]1O[C@H](c2nnc(C3CC3)o2)[C@@H](O)[C@H]1O.O=CO.O=CO [Example 40, (2S,3S,4R,5R)-2-(5-Cyclopropyl-[1,3,4]oxadiazol-2-yl)-5-[6-(1-ethyl-propylamino)-2-(pyrrolidin-3R-ylamino)-purin-9-yl]-tetrahydro-furan-3,4-diol diformate]	56.86	5084.2	>173
CCC(CC)Nc1nc(NCCC2CCCCC2)nc2c1ncn2C1OC(c2nnc(C3CC3)o2)C(O)C1O.O=CO.O=CO [Example 41, (2R,3R,4S,5S)-2-[2-(2-Cyclohexyl-ethylamino)-6-(1-ethyl-propylamino)-purin-9-yl]-5-(5-cyclopropyl-[1,3,4]oxadiazol-2-yl)-tetrahydro-furan-3,4-diol diformate]	74.29	1921.5	>249
CCC(CC)Nc1nc(N[C@H](CO)C(C)C)nc2c1ncn2[C@@H]1O[C@H](c2nnc(C3CC3)o2)[C@@H](O)[C@H]1O.O=CO [Example 42, (2R,3R,4S,5S)-2-[6-(1-Ethyl-propylamino)-2-(1S-hydroxymethyl-2-methyl-propylamino)-purin-9-yl]-5-(5-cyclopropyl-[1,3,4]oxadiazol-2-yl)-tetrahydro-furan-3,4-diol formate]	41.04	306.9	>87
CCc1cc([C@H]2O[C@@H](n3cnc4c(NC(CC)CC)nc(NCCN5CCCCC5)nc43)[C@H](O)[C@@H]2O)no1.O=CO.O=CO [Example 43, (2R,3R,4S,5R)-2-[6-(1-Ethyl-propylamino)-2-(2-piperidin-1-yl-ethylamino)-purin-9-yl]-5-(5-ethylisoxazol-3-yl)tetrahydrofuran-3,4-diol diformate]	3.25	21.82	>1124
(2R,3R,4S,5R)-2-[6-(2,2-Diphenyl-ethylamino)-2-(1R-hydroxy-2-phenyl-ethylamino)-purin-9-yl]-5-(1-ethyl-1H-[1,2,4]triazol-3-yl)-tetrahydro-furan-3,4-diol formate [Example 35]	6.33	5261.1	>240
(2R,3R,4S,5S)-2-[6-(2,2-Diphenyl-ethylamino)-2-(2-piperidin-1-yl-ethylamino)-purin-9-yl]-5-[5-methyl-[1,3,4]thiadiazol-2-yl)-tetrahydro-furan-3,4-diol diformate [Example 28]	37.3	3371	>245

— patent publication EP1090023B1 (GLAXO GROUP LIMITED, priority 1998, dated 1999)
